Here are results for 17 compounds from PubChem BioAssay (NCI).

Assay in all cases: growth of human tumour cells (NCI), 48 h
The test system of assay [1] is M19-MEL melanoma.
In assay [2] the test system is K-562 leukemia.
Assay [3] concerns HOP-18 NSCLC.
The test system of assay [4] is SNB-75 CNS.
Assay [5] concerns A498 renal.
In assay [6] the test system is OVCAR-4 ovarian.
In assay [7] the test system is SNB-19 CNS.
Assay [8] has as its system SF-268 CNS.
Assay [9] deals with SR leukemia.
In assay [10] the test system is DU-145 prostate.

Each structure is given as a SMILES string. Several values for one entry are separate records, joined by “and”; a condition that tells them apart may be missing. Identical values can stand only once.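 How tested: cells in 96-well plates exposed to compound for 48 hours at five concentrations. Abbreviation: GI50, concentration required for 50% inhibition of growth. TGI marks complete inhibition of growth.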 Some results are limits rather than exact numbers.

As for `COC(=O)C1=C(CS(=O)c2ccc([N+](=O)[O-])cc2[N+](=O)[O-])ON(C)C1c1ccccc1` (stereo unspecified), the TGI was above 100 µM in assay [1]; 34.5 µM in assay [2]; above 89.7 µM in assay [3]; 77.6 µM in assay [4]; above 100 µM in assay [5]; above 100 µM in assay [6]. In addition, the TGI is above 87.9 µM in assay [7] and above 100 µM in [8].

As for `CC(=O)c1ccc(NC(=O)C(=O)C(C(=O)c2ccc(Cl)c(Cl)c2)C2OC(=O)c3ccccc32)cc1` (stereo unspecified), the TGI in assay [2] is above 100 µM; in [3], 90.6 µM; in assay [5], 37.6 µM; in assay [6], above 100 µM; in assay [7], above 100 µM; in assay [8], 38.2 µM. The compound further showed a TGI in assay [9] above 100 µM.

With `COc1ccc(-c2cc(-c3cc(C)ccc3O)[nH]c(=O)n2)cc1`, the TGI was above 100 µM in [1]; above 100 µM in assay [2]; above 100 µM in assay [3]; 66.8 µM in [4]; above 100 µM in assay [5]; above 100 µM in assay [6]. In addition, the TGI in assay [7], in [8] and in assay [9] was above 100 µM each time.

Take `Cc1ccc(C(=O)C#Cc2c[nH]c(=O)[nH]c2=O)cc1`: the TGI in [1] was 36.5 µM; in assay [2], 34.2 µM; in [3], 32.6 µM; in assay [4], 34.4 µM; in [5] it was 28 µM; in assay [6], 47.3 µM. The TGI in assay [7] turned out to be 43 µM; in assay [8], 26.2 µM.

On to `COC1=C2C[C@@H](C)C[C@@H](OC)[C@@H](O)[C@H](C)/C=C(\C)[C@@H](OC(N)=O)[C@H](OC)/C=C\C=C(/C)C(=O)NC(=CC1=O)C2=O`, for which the GI50 is 0.0288 µM in [3]; 7.93 µM and 4.68 µM and 1.12 µM in assay [4]. Further, the TGI was 4.92 µM and 1.28 µM in [3]; 18.6 µM and 19.2 µM and 3.97 µM in assay [4]; 17.8 µM and 2.37 µM in assay [5]; 28 µM and 26.5 µM and 10.4 µM in assay [7]; 4.66 µM and 10.3 µM and 14.2 µM in assay [10].

With `CCOC(=O)C(=O)Nc1c(C)cccc1C(C)C`, the TGI in assay [1], in assay [2], in assay [3], in assay [4], in assay [5] and in [6] was above 100 µM each time. Also, the TGI in assay [7], in [8] and in assay [9] was above 100 µM each time.

Take `COc1ccccc1C(N)c1ccccc1` (stereo unspecified): the TGI in assay [1], in assay [2], in assay [3], in assay [4], in [5] and in assay [6] was above 100 µM in each case. The TGI in assay [7] and in assay [8] was above 100 µM throughout.

Turning to `O=NN/C(=C1\Nc2ccc([N+](=O)[O-])cc2NC1=O)C(O)c1ccc([N+](=O)[O-])cc1` (stereo unspecified), the TGI in assay [1], in assay [2], in [4], in assay [6], in [7] and in assay [8] was above 100 µM each time. Moreover, the TGI in assay [9] was above 100 µM.

Take `c1ccc(CN2CCCCC(Sc3ccccc3)CC2)cc1` (stereo unspecified): the TGI in assay [1] is 12.9 µM; in [2], 35 µM; in assay [3] it was above 100 µM; in [4], above 100 µM; in [5], above 100 µM; in assay [6], above 100 µM. In addition, the TGI in assay [7] is above 100 µM; in assay [8] it was above 100 µM; in assay [9] it was 37.7 µM.

Regarding `COC1OC(COS(=O)(=O)c2ccc(C)cc2)C(O)C(OS(=O)(=O)c2ccc(C)cc2)C1OS(=O)(=O)c1ccc(C)cc1` (stereo unspecified), the TGI in assay [1], in assay [2], in assay [3], in [4], in assay [6] and in assay [7] was above 100 µM in each case. Moreover, the TGI in [8] and in assay [9] was above 100 µM each time.

As to `Cc1c(C(=O)/C=C/c2c(Cl)cccc2Cl)c(=O)n(-c2ccccc2)n1C`, the TGI in [1] was above 100 µM; in assay [5], 98.4 µM; in assay [7], above 100 µM; in [8], above 100 µM.

As for `COc1ccc(C(=O)CC(=O)C(=O)Nc2ccc(C)c(C)c2)cc1`, the TGI was above 100 µM in assay [1]; above 87 µM in [2]; above 100 µM in [3]; 94.6 µM in assay [4]; above 100 µM in assay [5]; above 100 µM in [6]. For the same compound, the TGI in assay [7], in [8] and in [9] was above 100 µM in each case.

In the case of `COC(=O)C1=C(c2ccc3c(c2)OCO3)OC(c2ccc3c(c2)OCO3)C1` (stereo unspecified), the TGI in [1], in [2], in assay [3], in assay [4], in assay [5] and in assay [6] was above 100 µM throughout. For the same compound, the TGI in assay [8] and in assay [9] was above 100 µM in each case.

Consider `O=C1OC(c2ccccc2)=N/C1=C\c1cc(Cl)ccc1Cl`, for which the TGI in assay [1] is above 100 µM; in assay [2], above 100 µM; in assay [3], above 100 µM; in [4], 36.3 µM; in assay [5], above 100 µM; in [6] it was above 100 µM. Also, the TGI in [7] and in [8] was above 100 µM throughout.

For `CCOC(=O)N[C@@H]1C2CC(=O)C(O2)[C@@H]1OC` (stereo partly specified), the TGI in [1], in assay [2], in [3], in assay [4], in assay [6] and in assay [7] was above 100 µM throughout. The TGI in assay [8] and in assay [9] was above 100 µM in each case.

As for `COC(=O)C(Cc1ccccc1)NC(=O)Cn1ccnc1[N+](=O)[O-]` (stereo unspecified), the TGI in [1], in [2], in assay [3], in assay [4], in [5] and in assay [6] was above 100 µM each time. Moreover, the TGI in assay [7] and in assay [8] was above 100 µM each time.

Regarding `CCC[CH2][Sn]1([CH2]CCC)[O]CC(CN2CCOCC2)[O]1` (stereo unspecified), the GI50 is 3.99 µM in assay [1]; 2.43 µM in [2]; 2.16 µM in assay [4]; 5.5 µM in assay [5]; 11.2 µM in assay [6]; 7.65 µM in [7]. Further, the GI50 in [8] was 1.79 µM; in assay [9] it was 1.56 µM. Further, the TGI in assay [1] was found to be 17.3 µM; in [2], 9.16 µM; in [4], 7.05 µM; in assay [5] it was 17.2 µM; in assay [6] it was 23.4 µM; in assay [7], 19.6 µM. Also, the TGI in [8] was 5.52 µM; in assay [9] it was 6.13 µM.
